The test system of this data set is BTECs. Briefly: Heme content in BTECs. The class given is cell-based, human. The following applies: FLVCR1a knockdown vs scramble shRNA BTECs. An excerpt:
(A) Frequency (%) of patient tumors with overexpression of FLVCR1 compared to their matched normal tissues across multiple cancer types. The number of patients showing tumor FLVCR1 overexpression relative to the total number of patients examined are indicated in the plot. Data derive from the BioXpress (Wan et al., 2015). […] Transcript abundance, normalized to beta-actin mRNA expression (for SHSY-5Y cells) or to 18s mRNA (for BTECs), is expressed as a fold increase over a calibrator sample. Data represent mean±SEM, n=4. For statistical analyses, an unpaired Student's t-test was used; ***p<0.001. (C, E) Western blot analysis of FLVCR1a expression in SHSY-5Y cells (C) and BTECs (E). […] Band intensities were measured by densitometry and normalized to vinculin expression. […] Values are expressed as pmol heme/mg protein. […] Values are expressed as pmol heme/mg protein. […]
Intracellular heme concentration was measured using a fluorescence assay, as previously reported (Sinclair et al., 2001). […] Fluorescence (wavelength: excitation 405 nm-emission 660-720 nm) of the resultant protoporphyrin was assessed on a Glomax Multi Detection System (Promega Corporation, Madison WI, USA).
The endogenous protoporphyrin content (measured in parallel unheated samples in oxalic acid) was subtracted. […] Results were expressed as relative fluorescence intensity or, alternatively, as pmol of heme/mg total protein.

As to “FLVCR1a shRNA: shRNA specifically down-regulating FLVCR1a without targeting FLVCR1b; pLKO.1 lentiviral clone TRCN0000059599, antisense SEQ ID No.: 2 (antisense TTGCTAATGATGCTGTACTGG; sense CCAGTACAGCATCATTAGCAA)”, the “heme levels at the steady state” value is reported as “increased heme levels”.

Values taken from US20240285670A1, “THERAPEUTIC TREATMENT OF TUMORS BY BLOCKING THE HEME SYNTHESIS-EXPORT AXIS” (Università degli Studi di Torino, priority 2021, published 2024).
